Laboratory results from publication PMC5584254, “Identification of novel small molecule Beclin 1 mimetics activating autophagy” (Oncotarget, 2017).
Counter-ions that a name gives are not always drawn.

Experiments:
PC-3 = assay: MTT-based cytotoxicity assay, PC-3; details: Homo sapiens, averages of at least two independent experiments, read-out: Cytotoxicity in different cell lines (IC50, μM) PC-3
Excerpt: (§1) Human prostate cancer cell lines PC-3 and DU145, were purchased from American Type Culture Collection (ATCC) and used within 50 passages. PC-3a is a derivative of PC-3 that is resistant to chemo/radiotherapy, established in our lab and confirmed by genotyping. All cells were maintained in DMEM (Mediatech, Manassas, VA) supplemented with 10% fetal bovine serum (FBS) (Sigma-Aldrich, St. Louis, MO), 1% Glutamine (Mediatech, Manassas, VA), 1% antibiotics (Mediatech, Manassas, VA). Compounds for primary FP-based HTS screening were from Prestwick, Microsource, University of Kansas Center of Excellence in Chemical Methodologies & Library Development (KU CMLD, Lawrence, KS), and Chembridge libraries. Compounds for MTT and SPR validation experiment were purchased from Microsource (Gaylordsville, CT) and Hit2lead Company (San Diego, CA). Acridine analogues, compound 1–6, were from our in-house library (provided by Specialized Chemistry Center, University of Kansas, Lawrence, KS); compound 7–17 were synthesized as described in supplementary information. (–)-Gossypol was isolated from racemic gossypol as we previously described. ABT-263 and DMSO were purchased from Sigma. MTT-based cytotoxicity assay and western blot analysis was carried out according to our previous publications. The primary antibodies used were LC3B (#2775) (Cell signaling Technology, Danvers, MA) and β-actin (A5441) (Sigma).

Bcl-xL-Beclin 1 complex [1] = target: T1, Bcl-xL-Beclin 1 complex (Homo sapiens, UniProt Q07817); assay: Concentration response FP reconfirmation of HTS hits; format: binding; details: hits of first screen; for inhibition at 5 µM: read-out: Dose-response (% Inhibition) 5 μM; for inhibition at 10 µM: read-out: Dose-response (% Inhibition) 10 μM; for inhibition at 20 µM: read-out: Dose-response (% Inhibition) 20 μM; for inhibition at 40 µM: read-out: Dose-response (% Inhibition) 40 μM; for inhibition at 80 µM: read-out: Dose-response (% Inhibition) 80 μM; for inhibition at 160 µM: read-out: Dose-response (% Inhibition) 160 μM
T1 construct: made in house
T1 sequence (Q07817 whole entry, one chain of several): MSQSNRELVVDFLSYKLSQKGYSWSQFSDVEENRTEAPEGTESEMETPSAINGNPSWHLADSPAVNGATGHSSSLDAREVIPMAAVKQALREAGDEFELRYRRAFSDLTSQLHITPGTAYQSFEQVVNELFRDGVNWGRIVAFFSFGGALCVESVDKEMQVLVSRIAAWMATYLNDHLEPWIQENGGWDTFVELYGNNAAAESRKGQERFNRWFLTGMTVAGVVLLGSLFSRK
Procedure: (§2) Then the plates were read by Envision (Perkin Elmer, Waltham, MA). […] The hits were selected from library stocks and reconfirmed in a concentration response FP assay (6 doses ranging from 5 μM to 160 μM or 8 doses ranging from 0.5 μM to 60 μM).

[2] = system: PC-3 and PC-3a prostate cancer cells; assay: Western blot of autophagy markers (LC3 conversion, P62); format: cell-based, Human; details: 24 h treatment
Procedure: Figure 5 Acridine compounds induce autophagy in prostate cancer cells (A) LC3-II conversion in western blot analysis indicated the activity of autophagy. Cells were treated with DMSO or compounds for 24 h, and then lysed and processed for western blot analysis of LC3. (–)G and EBSS were used as positive controls. […] Yellow puncta indicate autophagosome (overlay of red and green fluorescence); red puncta indicate autolysosome (due to green fluorescence quenching at the acidic condition). Cells expressing RFP-GFP-LC3 were treated with compounds A13, A15 or A21 at indicated concentration for 24 h.
Figure 8 Acridine compounds induce autophagy in PC-3 and PC-3a cancer cells LC3-II conversion in western blot analysis indicated the activity of autophagy. Cells were treated with DMSO or compounds for 24 h, and then lysed and processed for western blot analysis of LC3. (–)G and EBSS were used as positive controls.
as §1

DU145 = assay: MTT-based cytotoxicity assay, DU145; details: Homo sapiens, DU-145, averages of at least two independent experiments, read-out: Cytotoxicity in different cell lines (IC50, μM) DU145
Excerpt: as §1

Bcl-xL-Beclin 1 complex [3] = target: T1, Bcl-xL-Beclin 1 complex; assay: FP-based high-throughput screening, primary screen; format: binding; details: first screen; 40 μM compound, 2.5 μM Bcl-xL, 400 nM 20-mer
Excerpt: Next, we optimized the FP competitive binding assay in a 384-well microplate format and carried out a small-scale HTS using a small library, which contains 6580 compounds from Prestwick, Microsource and our in-house CMLD library. Then, the FP assay was optimized and applied in screening the larger Chembridge library consisting of 43736 compounds. HTS cascades are shown in Supplementary Figure 1A–1B. […] All chemical structures can be found on the PubChem website (http://pubchem.ncbi.nlm.nih.gov/).
as §2

Bcl-xL protein = target: T2, Bcl-xL protein (Homo sapiens, UniProt Q07817); assay: Surface plasmon resonance assay, immobilized Bcl-xL; format: binding; details: SPR; 10 μM compound; Bcl-xL immobilized 10000 RU
T2 construct: made in house
T2 sequence (Q07817 whole entry): as the sequence (Q07817 whole entry, one chain of several) above
Procedure: The surface plasmon resonance experiments were performed using a Biacore 3000 (GE Healthcare Pittsburgh, PA) equipped with a research-grade CM5 sensor chip. The ligand (Bcl-xL) was immobilized using amine-coupling chemistry. The surfaces of flow cells on a Biacore sensor chip CM5 were activated for 7 min with a 1:1 mixture of 0.1 M NHS (N-hydroxysuccinimide) and 0.1 M EDC (3-(N,N-dimethylamino) propyl-N-ethylcarbodiimide) at a flow rate of 5 μL/min. The ligand (Bcl-xL) at a concentration of 180 μg/mL in 10 mM sodium acetate, pH 4.5, was immobilized at a density of about 10000 RU on flow cell 2; the ligand (SUMO-Bcl-2, 37.5 kDa, > 90% pure based on SDS–PAGE) at a concentration of 44 μg/ml in 10 mM sodium acetate, pH 4.5, was immobilized at a density of 10000 RU on flow cell 3; flow cell 1 was left blank to serve as a reference surface. All the surfaces were blocked with a 7 min injection of 1 M ethanolamine, pH 8.0.
For kinetic analysis, a concentration series of analyte were injected over the flow cells at a flow rate of 60 μL/min at 20 °C. The complex was allowed to associate and dissociate for 120 and 180 s, respectively. For binding studies, analyte (or test compound) was injected over the two flow cells in duplicate at indicated concentration at a flow rate of 60 μL/min at 20 °C. The running buffer consisted of 20 mM HEPES, 150 mM NaCl, 3 mM EDTA, 1 mM DTT, 0.05% P20, 5% DMSO, pH 7.4. The complex was allowed to associate and dissociate for 120 and 180 s, respectively. The buffer samples containing a range of 4–6% DMSO were injected at the beginning, used for solvent correction. The surfaces were regenerated between binding cycles with a 5 s injection of 5 mM NaOH for compounds and 10 mM Glycine pH 2.5 for 20-mer.
All measurements were taken with flow cell 1 as a reference (i.e. sensorgram depicts “2–1 correction”) and corrected for DMSO bulk differences via the calibration curves. To obtain kinetic rate constants (Ka and Kd), corrected response data were fit to a simple 1:1 interaction model using local fit (includes correction for mass transport limitations) available within Biaevaluation 3.1 software or Scrubber2 software. The equilibrium dissociation constant (KD) was determined by Kd/Ka.

## Nc1ccc2cc3ccc(N)cc3nc2c1 [Compound A13, PROFLAVINE HEMISULFATE]
PC-3
  IC50: 1.08 ± 0.1 µM
Bcl-xL-Beclin 1 complex [1]
  inhibition at 5 µM: 55.9%
  inhibition at 10 µM: 65.8%
  inhibition at 20 µM: 101%
  inhibition at 40 µM: 102%
  inhibition at 80 µM: 102%
  inhibition at 160 µM: 102%
[2]
  LC3-I to LC3-II conversion: Increased level of LC3-II
DU145
  IC50: 0.81 ± 0.51 µM
Bcl-xL-Beclin 1 complex [3]
  Primary Screen mP: -3.2 mP
  inhibition at 40 µM: 102%
Bcl-xL protein
  binding level to Bcl-xL protein in SPR: could bind to Bcl-xL

## CCOc1ccc2nc3cc(N)ccc3c(N)c2c1 [Compound A15, ETHACRIDINE LACTATE]
PC-3
  IC50: 1.61 ± 0.42 µM
Bcl-xL-Beclin 1 complex [1]
  inhibition at 5 µM: -0.5%
  inhibition at 10 µM: 6.2%
  inhibition at 20 µM: 14.9%
  inhibition at 40 µM: 20%
  inhibition at 80 µM: 47.7%
  inhibition at 160 µM: 60.9%
[2]
  LC3-I to LC3-II conversion: Increased level of LC3-II
DU145
  IC50: 10.5 ± 1.11 µM
Bcl-xL-Beclin 1 complex [3]
  Primary Screen mP: 83.5 mP
  inhibition at 40 µM: 37.9%
Bcl-xL protein
  binding level to Bcl-xL protein in SPR: could bind to Bcl-xL

## CCN(CC)CCCC(C)Nc1c2ccc(Cl)cc2nc2ccc(OC)cc12 (stereo not drawn) [Compound A21, QUINACRINE HYDROCHLORIDE]
PC-3
  IC50: 0.77 ± 0.1 µM
Bcl-xL-Beclin 1 complex [1]
  inhibition at 5 µM: 14.5%
  inhibition at 10 µM: 26.7%
  inhibition at 20 µM: 38.6%
  inhibition at 40 µM: 47.9%
  inhibition at 80 µM: 58.3%
  inhibition at 160 µM: 66.3%
[2]
  LC3-I to LC3-II conversion: Increased level of LC3-II
DU145
  IC50: 2.31 ± 0.39 µM
Bcl-xL-Beclin 1 complex [3]
  Primary Screen mP: 72.2 mP
  inhibition at 40 µM: 48.2%
Bcl-xL protein
  binding level to Bcl-xL protein in SPR: could bind to Bcl-xL
